Several values for one entry are separate records, joined by “and”; a condition that tells them apart may be missing. Equal entries are not always repeated. Marks after values point to notes of the source that are not given here.
Tests used:
Test in all cases: disc diffusion, zone of inhibition on seeded agar plates
Assay type in all cases: cell-based
[1] = test system: Candida albicans B 311; settings: for Zone Size / Zone Size Sabouarud Agar / Zone Size YNB agar / Zone Size B 311: 16-18 h; for Zone Size / Zone Size B 311: 28-37°C; for Zone Size Sabouarud Agar / Zone Size YNB agar: Table II, 37°C; for Zone Size YNB agar: lysine
Protocol: The antifungal activity of aculeacin A and the compositions of aculeacin A and fatty acids was measured by disc diffusion.
The effects of a number of fatty acids on the antifungal activity of aculeacin A were determined by utilizing seeded plates of Candida albicans B 311 in yeast nitrogen base (YNB) agar (Difco) with glucose as the carbon source. A composition containing one unit by weight of aculeacin A and 5 units of fatty acid or the sodium salt thereof was spotted on the seeded plates and the size of the zone of inhibition after 16-18 hours incubation at 28-37 °C was measured.
Additional fatty acids were tested to determine , if they increased the intrinsic activity of aculeacin A against C. albicans B 311 utilizing seeded plates of YNB agar (Difco) with lysine as the carbon source and seeded plates of Sabouarud dextrose agar (Difco). Compositions containg one µg of aculeacin A and various amounts of the fatty acid was spotted on the seeded plates and the size of the zone of inhibition after 16-18 hours incubation at 37 °C was measured.
The antifungal effects of compositions containing a single amount of oleic acid as the sodium salt while varying the amounts of aculeacin A were determined by utilizing seeded plates of Candida albicans B 311 in Sabouarud dextrose agar and measuring the zone of inhibition after 16-18 hours incubation at 28-37°C.
(§1) The antifungal effects of compositions containing a single amount of aculeacin A while varying the amounts. of oleic acid as the sodium salt were determined by utilizing seeded plates of Candida albicans strains B 311, BC 759 and B 3153A and measuring the zone of inhibition after 16-18 hours at 28-37°C. This test was also performed with linoleic acid and linolenic acid.
(§2) The seeded plates of Candida albicans strains B 311, BC 759, and B 3153A were prepared by inoculating 50 ml of trypticase soy broth (BBL) with one ml of the preserved frozen culture and incubating the inoculum at 37°C for 7 hours on a rotary shaker. Two milliliters of this culture were used to inoculate one liter of Sabouarud dextrose agar (Difco) at 50°C and 15 milliliters of the resultant medium poured into 150 mm petri-dishes.

[2] = test system: Candida albicans BC 759; settings: Table IV-a; aculeacin A 0.40 µg, oleic acid 0 µg; 16-18 h, 28-37°C
Protocol: (§3) The antifungal activity of aculeacin A and the compositions of aculeacin A and fatty acids was measured by disc diffusion. Potentiation of antifungal activity was examined by three different methods employing: (1) a single concentration of aculeacin A and a single concentration of known fatty acids; '(2) various concentrations of aculeacin A with a single concentration of individual fatty acids; and (3) various concentrations of fatty acids with a single concentration of aculeacin A. The antifungal activities of aculeacin A and the fatty acids were separately checked as controls.
as §1, §2

[3] = test system: Candida albicans B 3153A; settings: Table IV-a; aculeacin A 0.40 µg, oleic acid 0 µg; 16-18 h, 28-37°C
Protocol: as §3, §1, §2

[4] = Sabouarud dextrose agar, aculeacin A 0 µg, fatty acid 250 µg alone
[5] = Sabouarud dextrose agar, aculeacin A 0 µg, fatty acid 500 µg alone
[6] = Sabouarud dextrose agar, aculeacin A 0 µg, fatty acid 1000 µg alone
[7] = Sabouarud dextrose agar, composition of aculeacin A 1 µg + fatty acid 250 µg
[8] = Sabouarud dextrose agar, composition of aculeacin A 1 µg + fatty acid 500 µg
[9] = Sabouarud dextrose agar, composition of aculeacin A 1 µg + fatty acid 1000 µg
[10] = YNB agar, aculeacin A 0 µg, fatty acid 250 µg alone
[11] = YNB agar, aculeacin A 0 µg, fatty acid 500 µg alone
[12] = YNB agar, aculeacin A 0 µg, fatty acid 1000 µg alone
[13] = YNB agar, composition of aculeacin A 1 µg + fatty acid 250 µg
[14] = YNB agar, composition of aculeacin A 1 µg + fatty acid 500 µg
[15] = YNB agar, composition of aculeacin A 1 µg + fatty acid 1000 µg

With aculeacin A [reference compound] the “Zone Size” value ([1]; Table I, YNB agar, glucose as carbon source, aculeacin A alone, no fatty acid) was 15 mm, the “Zone Size Sabouarud Agar” value ([1]; Sabouarud dextrose agar, aculeacin A 1 µg, no fatty acid) was 13 mm and 15 mm and the “Zone Size YNB agar” value ([1]; YNB agar, aculeacin A 1 µg, no fatty acid) was 15 mm and 16 mm. The “Zone Size” value ([1]; Table III, Sabouarud dextrose agar, aculeacin A 0.312 µg, oleic acid 0 µg) was “trace”, the “Zone Size” value ([1]; Table III, Sabouarud dextrose agar, aculeacin A 0.625 µg, oleic acid 0 µg) was 10 mm and the “Zone Size” value ([1]; Table III, Sabouarud dextrose agar, aculeacin A 1.25 µg, oleic acid 0 µg) was 14-16 mm. The “Zone Size” value ([1]; Table III, Sabouarud dextrose agar, aculeacin A 2.5 µg, oleic acid 0 µg) was 19 mm, the “Zone Size B 311” value ([1]; Table IV-a, aculeacin A 0.40 µg, oleic acid 0 µg) was 10 mm and the “Zone Size B 311” value ([1]; Tables IV-b, IV-c, aculeacin A 0.625 µg, fatty acid 0 µg) was 16 mm. For the same compound, the “Zone Size BC 759” value [2] was 13 mm and the “Zone Size B 3153-A” value [3] was 12 mm.

CCCCC/C=C\C/C=C\C/C=C\C/C=C\CCCC(=O)O [Arachidonic Acid] was tested, and the “Zone Size Sabouarud Agar” value [1, 4] was 0 mm, the “Zone Size Sabouarud Agar” value [1, 5] was 0 mm and the “Zone Size Sabouarud Agar” value [1, 6] was 0 mm. For the same compound, the “Zone Size Sabouarud Agar” value [1, 7] was 20* mm, the “Zone Size Sabouarud Agar” value [1, 8] was 20* mm and the “Zone Size Sabouarud Agar” value [1, 9] was 20* mm. For the same compound, the “Zone Size YNB agar” value [1, 10] was 0 mm, the “Zone Size YNB agar” value [1, 11] was 0 mm and the “Zone Size YNB agar” value [1, 12] was 0 mm. The “Zone Size YNB agar” value [1, 13] was 20 mm, the “Zone Size YNB agar” value [1, 14] was 20 mm and the “Zone Size YNB agar” value [1, 15] was 26 mm.

For CCCCCC/C=C/CCCCCCCC(=O)O [Palmitelaidic Acid], the “Zone Size Sabouarud Agar” value [1, 5] was 0 mm, the “Zone Size Sabouarud Agar” value [1, 6] was 0 mm and the “Zone Size Sabouarud Agar” value ([1]; Sabouarud dextrose agar, aculeacin A 0 µg, fatty acid 2000 µg alone) was 0 mm. For the same compound, the “Zone Size Sabouarud Agar” value [1, 8] was 30 mm, the “Zone Size Sabouarud Agar” value [1, 9] was 32 mm and the “Zone Size Sabouarud Agar” value ([1]; Sabouarud dextrose agar, composition of aculeacin A 1 µg + fatty acid 2000 µg) was 25 mm. The “Zone Size YNB agar” value [1, 11] was 0 mm, the “Zone Size YNB agar” value [1, 12] was 0 mm and the “Zone Size YNB agar” value ([1]; YNB agar, aculeacin A 0 µg, fatty acid 2000 µg alone) was 0 mm. For the same compound, the “Zone Size YNB agar” value [1, 14] was 20 mm, the “Zone Size YNB agar” value [1, 15] was 20 mm and the “Zone Size YNB agar” value ([1]; YNB agar, composition of aculeacin A 1 µg + fatty acid 2000 µg) was 22 mm.

For CCCCC/C=C/C/C=C/CCCCCCCC(=O)O [Linoelaidic Acid], the “Zone Size Sabouarud Agar” value [1, 4] was 0 mm, the “Zone Size Sabouarud Agar” value [1, 5] was 0 mm and the “Zone Size Sabouarud Agar” value [1, 6] was 0 mm. The “Zone Size Sabouarud Agar” value [1, 7] was 20* mm, the “Zone Size Sabouarud Agar” value [1, 8] was 20* mm and the “Zone Size Sabouarud Agar” value [1, 9] was 24* mm. For the same compound, the “Zone Size YNB agar” value [1, 10] was 0 mm, the “Zone Size YNB agar” value [1, 11] was 0 mm and the “Zone Size YNB agar” value [1, 12] was 0 mm. For the same compound, the “Zone Size YNB agar” value [1, 13] was 26 mm, the “Zone Size YNB agar” value [1, 14] was 17 mm and the “Zone Size YNB agar” value [1, 15] was 16 mm. The “increase in the intrinsic activity of aculeacin A” value ([1]; composition of 250 units by weight fatty acid to one unit aculeacin A, Table II test) was “surprising increase in the intrinsic activity of aculeacin A”.

With CCCCCCCCCCCCCCCCCC(=O)O [Stearic Acid] the “Zone Size” value ([1]; Table I, YNB agar, glucose as carbon source, composition of 1 unit by weight aculeacin A + 5 units fatty acid) was 15 mm.

For CCCCCCCCCCCCCCCCCCCCCC(=O)O [Behenic Acid], the “Zone Size Sabouarud Agar” value [1, 4] was 0 mm, the “Zone Size Sabouarud Agar” value [1, 5] was 0 mm and the “Zone Size Sabouarud Agar” value [1, 6] was 0 mm. The “Zone Size Sabouarud Agar” value [1, 7] was 15 mm, the “Zone Size Sabouarud Agar” value [1, 8] was 14 mm and the “Zone Size Sabouarud Agar” value [1, 9] was 20 mm. For the same compound, the “Zone Size YNB agar” value [1, 10] was 0 mm, the “Zone Size YNB agar” value [1, 11] was 0 mm and the “Zone Size YNB agar” value [1, 12] was 0 mm. For the same compound, the “Zone Size YNB agar” value [1, 13] was 14 mm, the “Zone Size YNB agar” value [1, 14] was 14 mm and the “Zone Size YNB agar” value [1, 15] was 15 mm.

Reference: patent EP0086092A2, “Antifungal compositions” (priority 1982, dated 1983)
